The target in test [1] is T1, Met (h) (Homo sapiens, UniProt P08581).
T1 construct: purchased Upstate
Briefly: Upstate kinase panel: Met. Type of test: biochemical. The following applies: compound 20 μM, 10 μM ATP, read-out: % inhibition at 20 μMol. The procedure:
(§1) These kinases are produced by Upstate and screened according to the respective protocols indicated by the supplier (http://www.upstate.com/features/kp_protocols.asp). Examples 1, 12, 166 and 238 were tested at a concentration of 20 μM, 10 μM, 1 μM and 1 μM respectively in the presence of 10 μM of ATP for examples 1 and 12 and at the concentrations of ATP shown in parentheses for examples 166 and 238. The results shown in Table VII correspond to percentage inhibition of the kinase tested in the presence of the compound, relative to a control effected without the compound.

In test [2] the target is T2, TrkA (h) (Homo sapiens, UniProt P04629).
T2 construct: purchased Upstate
T2 sequence (P04629 33-796): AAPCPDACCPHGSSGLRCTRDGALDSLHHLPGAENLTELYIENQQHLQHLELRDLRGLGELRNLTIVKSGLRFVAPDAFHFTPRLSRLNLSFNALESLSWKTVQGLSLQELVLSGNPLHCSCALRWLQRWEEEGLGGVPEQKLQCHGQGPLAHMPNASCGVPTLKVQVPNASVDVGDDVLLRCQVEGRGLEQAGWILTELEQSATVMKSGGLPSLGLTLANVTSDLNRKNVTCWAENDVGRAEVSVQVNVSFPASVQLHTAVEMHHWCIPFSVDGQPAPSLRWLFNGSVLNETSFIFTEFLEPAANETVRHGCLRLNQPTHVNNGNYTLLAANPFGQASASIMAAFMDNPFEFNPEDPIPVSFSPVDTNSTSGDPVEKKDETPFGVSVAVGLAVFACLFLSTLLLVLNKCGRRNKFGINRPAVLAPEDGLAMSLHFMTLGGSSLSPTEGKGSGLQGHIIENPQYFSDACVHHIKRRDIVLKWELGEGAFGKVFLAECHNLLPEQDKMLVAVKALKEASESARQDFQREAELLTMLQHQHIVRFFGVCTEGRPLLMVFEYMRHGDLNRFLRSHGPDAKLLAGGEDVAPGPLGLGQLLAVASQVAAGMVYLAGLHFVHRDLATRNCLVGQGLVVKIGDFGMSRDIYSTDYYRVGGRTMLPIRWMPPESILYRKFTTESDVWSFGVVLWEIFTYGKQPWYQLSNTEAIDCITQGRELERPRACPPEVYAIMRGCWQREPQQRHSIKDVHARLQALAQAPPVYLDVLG
The test is described as follows: Upstate kinase panel: TrkA. It is filed as biochemical. Conditions: compound 20 μM, 10 μM ATP, read-out: % inhibition at 20 μMol. On the procedure:
as §1

Test [3] addresses T3, Hck (h) (Homo sapiens, UniProt P08631).
T3 construct: purchased Upstate
Briefly: Upstate kinase panel: Hck. It is filed as biochemical. Conditions: compound 10 μM, 10 μM ATP, read-out: % inhibition at 10 μMol. On the procedure: as §1

Test [4] concerns the target T4, TrkB (h) (Homo sapiens, UniProt Q16620).
T4 construct: purchased Upstate
The test is described as follows: Upstate kinase panel: TrkB. It is filed as biochemical. Conditions: compound 10 μM, 10 μM ATP, read-out: % inhibition at 10 μMol. On the procedure: as §1

Test [5] addresses T5, TrkB (Homo sapiens, UniProt Q16620).
T5 construct: purchased Upstate 14-507
Briefly: Inhibition of kinase TrkB (Kinase-Glo). Type of test: biochemical. Conditions: TrkB 4 μg/ml, 40 μM ATP, two hours at 30° C. An outline of the steps:
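TrkB at 4 μg/ml with 2.5 mg/ml poly-EY and 40 μM ATP in MOPS/NaOH pH 7 buffer with MgAc, EDTA, DTT, vanadate and glycerophosphate; compounds at final 10 nM–30 μM. After 2 h at 30°C, remaining ATP measured by Kinase-Glo luminescence.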

For test [6], the system named is 1752L. The test is described as follows: WST test, inhibition of proliferation of 1752L. Type of test: cell-based. Conditions: 96 h; line 1752L, tissue of origin Pleuromesothelium; four days of incubation, WST-1. The procedure:
(§2) The inhibition of the proliferation of cell lines by certain compounds of the invention was tested. […] In the example, the lines used were derived from cancers of the uterus, central nervous system, colon, stomach, head and neck, lung, breast, pancreas, and kidney, as well as from lymphoma, myeloma, pleura, or from melanoma.
(§3) The WST test for measuring cell proliferation and viability (Roche Applied Science) is based on cleavage of a tetrazolium salt by the mitochondrial dehydrogenases in viable cells.
(§4) After four days of incubation of the compounds with the cell line, 14 μl of WST-1 reagent is added to each well and the plates are incubated for four hours at 37° in humid atmosphere at 5% CO2. The level of formazan formed is then determined by spectrophotometry at 450 nm whereas a reference is measured at 650 nm. A control with untreated cells is represented by six wells per plate and the group of treated cells is produced in triplicate for each of the concentrations measured.
(§5) The compounds are tested at five concentrations between 10 nM and 100 μM and two cytotoxic agents are used as controls: adriamycin and 5-fluorouracil.

Test [7] relates to MDA-231. Briefly: WST test, inhibition of proliferation of MDA-231. It is filed as cell-based. Conditions: Homo sapiens, MDA-MB-231, 96 h; line MDA-231, tissue of origin Breast; four days of incubation, WST-1. On the procedure:
as §2, §3, §4, §5

Test [8] has as its system A427. Briefly: WST test, inhibition of proliferation of A427. It is filed as cell-based. Conditions: Homo sapiens, A-427, 96 h; line A427, tissue of origin Lung (NSCLC); four days of incubation, WST-1. On the procedure:
as §2, §3, §4, §5

The test system of test [9] is SW756. The test is described as follows: WST test, inhibition of proliferation of SW756. The following applies: Homo sapiens, 96 h; line SW756, tissue of origin Cervix; four days of incubation, WST-1. Type of test: cell-based. The procedure:
as §2, §3, §4, §5

Test [10] deals with SKNAS. The test is described as follows: WST test, inhibition of proliferation of SKNAS. Type of test: cell-based. The following applies: Homo sapiens, SK-N-AS, 96 h; line SKNAS, tissue of origin CMS; four days of incubation, WST-1. The procedure:
as §2, §3, §4, §5

For test [11], the system named is U251. The test is described as follows: WST test, inhibition of proliferation of U251. It is filed as cell-based. The following applies: Homo sapiens, U-251, 96 h; line U251, tissue of origin CMS; four days of incubation, WST-1. On the procedure: as §2, §3, §4, §5
In test [12] the test system is CAPAN2. Briefly: WST test, inhibition of proliferation of CAPAN2. It is filed as cell-based. The following applies: Homo sapiens, Capan-2, 96 h; line CAPAN2, tissue of origin Pancreas; four days of incubation, WST-1. The procedure: as §2, §3, §4, §5
For test [13], the target named is T6, Rsk2 (h) (Homo sapiens, UniProt P51812).
T6 construct: purchased Upstate
T6 sequence (P51812 whole entry): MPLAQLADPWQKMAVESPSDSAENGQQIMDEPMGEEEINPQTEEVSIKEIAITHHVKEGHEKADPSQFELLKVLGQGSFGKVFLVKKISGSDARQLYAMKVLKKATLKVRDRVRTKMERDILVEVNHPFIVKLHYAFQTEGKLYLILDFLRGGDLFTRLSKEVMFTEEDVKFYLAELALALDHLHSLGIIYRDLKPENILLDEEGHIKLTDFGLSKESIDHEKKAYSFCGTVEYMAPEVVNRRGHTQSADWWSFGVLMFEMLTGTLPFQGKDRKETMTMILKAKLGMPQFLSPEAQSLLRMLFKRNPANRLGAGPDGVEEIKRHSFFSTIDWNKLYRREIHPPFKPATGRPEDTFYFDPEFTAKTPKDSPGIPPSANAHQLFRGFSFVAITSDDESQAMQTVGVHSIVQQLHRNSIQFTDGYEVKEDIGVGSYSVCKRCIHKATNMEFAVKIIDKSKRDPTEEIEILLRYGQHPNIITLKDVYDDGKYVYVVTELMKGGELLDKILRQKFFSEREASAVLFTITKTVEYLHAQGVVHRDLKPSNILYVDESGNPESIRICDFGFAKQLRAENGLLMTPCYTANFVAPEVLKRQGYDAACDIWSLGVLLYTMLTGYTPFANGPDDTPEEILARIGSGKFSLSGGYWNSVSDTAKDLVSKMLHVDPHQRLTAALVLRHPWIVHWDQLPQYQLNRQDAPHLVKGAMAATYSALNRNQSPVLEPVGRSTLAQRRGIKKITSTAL
The test is described as follows: Upstate kinase panel: Rsk2. It is filed as biochemical. Conditions: compound 1 μM, ATP (10), read-out: % inhibition at 1 μMol. On the procedure: as §1

In test [14] the test system is MDA-468. The test is described as follows: WST test, inhibition of proliferation of MDA-468. The following applies: 96 h; line MDA-468, tissue of origin Breast; four days of incubation, WST-1. It is filed as cell-based. The procedure: as §2, §3, §4, §5
In test [15] the test system is panel of cell lines. Briefly: Inhibition of the proliferation of a panel of cell lines (WST test). It is filed as cell-based. The following applies: lines of Table XI, four days of incubation.
For test [16], the system named is A172. The test is described as follows: WST test, inhibition of proliferation of A172. Type of test: cell-based. Conditions: Homo sapiens, A 172, 96 h; line A172, tissue of origin CMS; four days of incubation, WST-1. On the procedure: as §2, §3, §4, §5

T5 sequence (Q16620 32-822): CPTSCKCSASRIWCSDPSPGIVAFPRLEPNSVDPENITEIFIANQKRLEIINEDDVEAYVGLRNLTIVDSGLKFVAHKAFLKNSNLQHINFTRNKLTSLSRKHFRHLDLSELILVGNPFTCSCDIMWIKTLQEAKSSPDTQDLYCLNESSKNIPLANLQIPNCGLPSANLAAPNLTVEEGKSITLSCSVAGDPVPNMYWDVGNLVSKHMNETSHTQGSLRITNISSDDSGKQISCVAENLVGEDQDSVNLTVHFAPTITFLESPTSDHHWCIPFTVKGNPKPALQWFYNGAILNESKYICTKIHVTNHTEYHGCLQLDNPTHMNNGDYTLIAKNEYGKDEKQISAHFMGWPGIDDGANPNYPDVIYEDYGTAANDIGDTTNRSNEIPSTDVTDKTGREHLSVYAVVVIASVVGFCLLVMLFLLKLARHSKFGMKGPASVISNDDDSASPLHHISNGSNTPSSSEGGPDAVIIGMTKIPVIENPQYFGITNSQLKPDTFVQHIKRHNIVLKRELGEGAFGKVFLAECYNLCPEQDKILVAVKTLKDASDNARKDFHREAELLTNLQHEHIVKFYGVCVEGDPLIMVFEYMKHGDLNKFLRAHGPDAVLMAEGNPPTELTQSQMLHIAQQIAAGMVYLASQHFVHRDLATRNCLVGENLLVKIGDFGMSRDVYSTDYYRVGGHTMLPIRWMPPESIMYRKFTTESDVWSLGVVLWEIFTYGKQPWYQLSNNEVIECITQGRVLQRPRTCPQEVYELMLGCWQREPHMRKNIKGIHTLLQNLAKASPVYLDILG
T4 sequence (Q16620 32-822): as above
T1 sequence (P08581 25-1390): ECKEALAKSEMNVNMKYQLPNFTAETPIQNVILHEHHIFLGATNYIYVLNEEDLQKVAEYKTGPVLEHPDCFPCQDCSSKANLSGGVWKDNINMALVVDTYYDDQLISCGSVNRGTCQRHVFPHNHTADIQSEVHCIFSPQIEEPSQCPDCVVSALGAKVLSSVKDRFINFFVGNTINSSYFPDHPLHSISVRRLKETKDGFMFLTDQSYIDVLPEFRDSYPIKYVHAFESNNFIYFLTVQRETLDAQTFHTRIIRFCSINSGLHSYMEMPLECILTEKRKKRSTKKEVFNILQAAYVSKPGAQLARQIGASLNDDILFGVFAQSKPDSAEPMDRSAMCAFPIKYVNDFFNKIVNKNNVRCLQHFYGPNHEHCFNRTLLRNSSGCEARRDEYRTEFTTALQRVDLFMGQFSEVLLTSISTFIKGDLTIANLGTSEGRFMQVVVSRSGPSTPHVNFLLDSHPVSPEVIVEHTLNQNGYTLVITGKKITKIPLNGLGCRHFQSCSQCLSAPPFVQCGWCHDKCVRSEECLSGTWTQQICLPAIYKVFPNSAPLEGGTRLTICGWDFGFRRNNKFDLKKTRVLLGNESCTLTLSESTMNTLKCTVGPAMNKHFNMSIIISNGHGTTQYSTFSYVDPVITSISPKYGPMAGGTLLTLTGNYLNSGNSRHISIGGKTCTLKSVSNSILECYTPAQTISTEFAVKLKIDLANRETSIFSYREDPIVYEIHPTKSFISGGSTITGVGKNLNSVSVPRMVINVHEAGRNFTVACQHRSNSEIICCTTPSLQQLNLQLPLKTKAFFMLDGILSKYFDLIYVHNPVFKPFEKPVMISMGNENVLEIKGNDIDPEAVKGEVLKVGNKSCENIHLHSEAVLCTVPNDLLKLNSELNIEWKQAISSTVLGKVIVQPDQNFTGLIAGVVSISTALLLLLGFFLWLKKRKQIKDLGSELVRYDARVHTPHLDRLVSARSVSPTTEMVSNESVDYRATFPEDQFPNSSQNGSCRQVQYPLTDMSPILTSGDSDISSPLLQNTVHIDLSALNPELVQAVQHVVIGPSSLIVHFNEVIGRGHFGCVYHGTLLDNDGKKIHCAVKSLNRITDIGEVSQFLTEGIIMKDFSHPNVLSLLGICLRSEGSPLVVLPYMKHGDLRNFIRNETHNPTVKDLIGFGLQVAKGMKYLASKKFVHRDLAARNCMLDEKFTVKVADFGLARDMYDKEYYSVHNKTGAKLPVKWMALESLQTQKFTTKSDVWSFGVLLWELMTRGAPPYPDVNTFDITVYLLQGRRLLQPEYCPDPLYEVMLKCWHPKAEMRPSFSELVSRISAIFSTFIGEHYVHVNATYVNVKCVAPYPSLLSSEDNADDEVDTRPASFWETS
T3 sequence (P08631 whole entry): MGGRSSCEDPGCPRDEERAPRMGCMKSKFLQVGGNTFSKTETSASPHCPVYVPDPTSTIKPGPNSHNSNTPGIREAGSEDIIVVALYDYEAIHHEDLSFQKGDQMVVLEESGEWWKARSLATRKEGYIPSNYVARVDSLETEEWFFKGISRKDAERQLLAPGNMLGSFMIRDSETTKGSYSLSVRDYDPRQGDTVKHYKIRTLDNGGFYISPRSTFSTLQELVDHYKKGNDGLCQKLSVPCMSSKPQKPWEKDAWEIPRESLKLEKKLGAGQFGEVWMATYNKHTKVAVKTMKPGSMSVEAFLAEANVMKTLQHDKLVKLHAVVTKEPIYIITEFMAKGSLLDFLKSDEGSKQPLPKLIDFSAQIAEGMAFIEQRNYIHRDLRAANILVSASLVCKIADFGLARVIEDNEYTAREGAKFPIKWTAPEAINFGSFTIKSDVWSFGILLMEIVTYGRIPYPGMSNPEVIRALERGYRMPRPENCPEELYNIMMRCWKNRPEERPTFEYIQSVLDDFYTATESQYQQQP

On to `CCOC(=O)c1c[nH]c2c(=O)[nH]c3ccccc3c12` [Compound 1, 4-Oxo-4,5-dihydro-3H-pyrrolo[2,3-c]quinoline-1-ethyl carboxylate], for which the figures for the inhibition at 20 µM in [1] and in test [2] were 52% and 97%, respectively.

On to `CCOC(=O)c1c[nH]c2c(=O)[nH]c3ccc(S(=O)(=O)Nc4ccc(F)cc4)cc3c12` [Compound 12, 8-(4-Fluorophenylsulfamoyl)-4-oxo-4,5-dihydro-3H-pyrrolo[2,3-c]quinoline-1-ethyl carboxylate], for which the inhibition at 10 µM in [3] is 91%; in [4], 98%. The molecule also showed an IC50 in test [5] of 1 to 10 µM.

`CCOC(=O)c1c[nH]c2c(=O)[nH]c3ccc(-c4cccc(S(C)(=O)=O)c4)cc3c12` [Compound 238, 8-(3-Methanesulfonyl-phenyl)-4-oxo-4,5-dihydro-3H-pyrrolo[2,3-c]quinoline-1-ethyl carboxylate]: the IC50 in test [6] came out at 35 µM; in test [7] it was 41 µM; in test [8], 36 µM; in [9], 35 µM; in test [10], 12 µM; in [11], 33 µM. Also, the values for the IC50 in [12], in test [14] and in [16] were 47 µM, 38 µM and 13 µM, respectively. For the same molecule, the inhibition at 1 µM in [13] was 25%. Also, in [15], the “inhibition of proliferation of cell lines (in words)” value is recorded as “inhibition of proliferation”.

Values taken from patent US8426437B2, “Pyrroloquinoline derivatives and their use as protein kinases inhibitors” (Pierre Fabre Medicament, priority 2005, dated 2013).
